{"source": "the supplement of paper PMC10307832", "assay_in_all_cases": "relative viability (nuclei count vs DMSO), 5 days (fraction); higher = more cells survive", "key": {"Adavosertib + Vorinostat": {"compound": "C=CCn1c(=O)c2cnc(Nc3ccc(N4CCN(C)CC4)cc3)nc2n1-c1cccc(C(C)(C)O)n1 [Adavosertib] + O=C(CCCCCCC(=O)Nc1ccccc1)NO [Vorinostat] (partner 1 µM)", "method_in_brief": "(§1)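 Lung cancer cell lines in 1536-well plates were dosed by pin tool the day after seeding, either with one drug alone or with a fixed anchor-drug dose plus five library-drug doses (not always all listed) in √10 steps. After 5 days, cells were fixed and their nuclei stained in one step (final 0.05% Triton X-100, 1% formaldehyde, 1 ug/ml Hoechst), then counted on 4× images. Relative viability is the nuclei count in treated wells divided by that in vehicle wells. Values are medians of duplicate plates.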"}, "Nelarabine + Alpelisib": {"compound": "COc1nc(N)nc2c1ncn2[C@@H]1O[C@H](CO)[C@@H](O)[C@@H]1O [Nelarabine] + Cc1nc(NC(=O)N2CCC[C@H]2C(N)=O)sc1-c1ccnc(C(C)(C)C(F)(F)F)c1 [Alpelisib] (partner 2 µM)", "method_in_brief": "as §1"}, "Adavosertib + AZD7762": {"compound": "C=CCn1c(=O)c2cnc(Nc3ccc(N4CCN(C)CC4)cc3)nc2n1-c1cccc(C(C)(C)O)n1 [Adavosertib] + NC(=O)Nc1cc(-c2cccc(F)c2)sc1C(=O)N[C@H]1CCCNC1 [AZD7762] (partner 0.2 µM)", "method_in_brief": "as §1"}, "Nelarabine + Vorinostat": {"compound": "COc1nc(N)nc2c1ncn2[C@@H]1O[C@H](CO)[C@@H](O)[C@@H]1O [Nelarabine] + O=C(CCCCCCC(=O)Nc1ccccc1)NO [Vorinostat] (partner 1 µM)", "method_in_brief": "as §1"}}}
{"cell line": "EMC-BAC-2", "values": [{"measurement": "relative viability", "setting": "Adavosertib + Vorinostat; first compound 0.03162 µM", "value": 0.536}, {"measurement": "relative viability", "setting": "Adavosertib + Vorinostat; first compound 0.1 µM", "value": 0.431}, {"measurement": "relative viability", "setting": "Adavosertib + Vorinostat; first compound 0.3162 µM", "value": 0.396}, {"measurement": "relative viability", "setting": "Nelarabine + Alpelisib; first compound 0.01 µM", "value": 0.794}, {"measurement": "relative viability", "setting": "Nelarabine + Alpelisib; first compound 0.03162 µM", "value": 0.585}, {"measurement": "relative viability", "setting": "Nelarabine + Alpelisib; first compound 0.1 µM", "value": 0.73}, {"measurement": "relative viability", "setting": "Nelarabine + Alpelisib; first compound 0.3162 µM", "value": 0.799}, {"measurement": "relative viability", "setting": "Nelarabine + Alpelisib; first compound 1 µM", "value": 0.815}, {"measurement": "relative viability", "setting": "Adavosertib + AZD7762; first compound 0.03162 µM", "value": 1.15}, {"measurement": "relative viability", "setting": "Adavosertib + AZD7762; first compound 0.1 µM", "value": 0.887}, {"measurement": "relative viability", "setting": "Adavosertib + AZD7762; first compound 0.3162 µM", "value": 1.06}, {"measurement": "relative viability", "setting": "Nelarabine + Vorinostat; first compound 0.01 µM", "value": 0.47}, {"measurement": "relative viability", "setting": "Nelarabine + Vorinostat; first compound 0.03162 µM", "value": 1.01}, {"measurement": "relative viability", "setting": "Nelarabine + Vorinostat; first compound 0.1 µM", "value": 0.643}, {"measurement": "relative viability", "setting": "Nelarabine + Vorinostat; first compound 0.3162 µM", "value": 0.441}, {"measurement": "relative viability", "setting": "Nelarabine + Vorinostat; first compound 1 µM", "value": 0.399}]}
